Measurements published in patent US11078232B2, “Preparation and use of molecular site targeted and activated kinase inhibitor” (Yafei Shanghai Biology Medicine Science & Technology Co. …, priority 2017, dated 2021).

Columns and labels:
aspartic endopeptidase = target: T1, aspartic endopeptidase (Homo sapiens, UniProt Q99538); assay: Activation efficiency by aspartic endopeptidase (HPLC); assay type: biochemical; settings: 1 mg/ml compound, enzyme 1 μmol/L, pH 6.0, 37° C., 2 hours; ratio of released product to original compound
T1 sequence (Q99538 18-323): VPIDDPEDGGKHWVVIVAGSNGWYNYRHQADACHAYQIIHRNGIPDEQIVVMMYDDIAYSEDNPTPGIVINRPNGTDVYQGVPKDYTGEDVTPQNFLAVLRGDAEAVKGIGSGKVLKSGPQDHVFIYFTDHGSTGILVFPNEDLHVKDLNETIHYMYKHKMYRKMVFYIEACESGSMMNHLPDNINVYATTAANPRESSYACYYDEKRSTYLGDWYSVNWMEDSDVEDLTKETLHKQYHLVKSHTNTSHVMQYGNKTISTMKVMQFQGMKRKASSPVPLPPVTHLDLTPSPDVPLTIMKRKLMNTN
Procedure: The sample compound and a portion of the control compound (herein, all of the control compounds can be synthesized by a method similar to that described in Examples 1-3) were uniformly diluted 10-fold to 1 mg/ml with the enzyme-digesting solution. In this experiment, 1 mg/ml of the sample compound was added to the aspartic endopeptidase (1 μmol/L, pH 6.0) at 37° C. for 2 hours. After the reaction, the enzyme digest was able to release the enzyme-digested product. The decrease in the compound and the increase in the product were examined by HPLC to compare the enzyme activation efficiency (the ratio of the product released by the enzyme cleavage to the original compound).

[1] = Solid stability, 60° C. for 10 days in the dark (HPLC); assay type: physicochemical; settings: solid, 60° C., 10 days, dark; for Stability(%): content versus time 0
Procedure: The test was carried out by leaving it at 60° C. for 10 days in the dark. The ratio of the change in the content of the compound to the compound at time 0 was measured by HPLC, and the stability value (%) was calculated.

[2] = MTD (maximum tolerated dose) acute toxicity in mice; assay type: in vivo, mouse; settings: mouse, in vivo, BALB/C mice, intravenous, observed 17 days; for MTD at 17 days: female
Description: (§1) Test purpose: to investigate the acute toxicity of highly activated compounds by targeted site molecules of the invention by measuring the MTD (maximum tolerated dose) experiment in mice.
(§2) The injections of each drug and the control drug were uniformly dissolved using water for injection, and diluted to the corresponding dose with physiological saline during the test.
(§3) Methods and results: […] BALB/C mice, weighing 19-21 g, were randomly divided into 10 groups, with 10 mice in each group. […] A control test of the saline group and the adriamycin group injection (commercially available, Beijing Yue kang) was carried out, and the injection volume of each mouse was 0.2 ml. […] On the D3, D5, and D14, blood samples were taken for whole blood count.

BALB/C mouse = assay: as above; assay type: in vivo; settings: intravenous; for Number of deaths: 10 mice per group; for Death dose: observed 17 days
Description: as §1, §2, §3

CT26 tumor cells [3] = assay: CT26 immunotherapy model (Example 15); assay type: in vivo, mice; settings: for Cure rate % / Number of cures: 10 in each group; for Tumor inhibition rate % (Day 42): IV ⅓ MTD once a week, 6 weeks; for Recurrence rate % (Week 7): cured mice re-inoculated with CT26 cells after 50 days
Procedure: (§4) 1) CT26 tumor cells were purchased from ATCC, and the cells were cultured using a 10% fetal bovine serum DMEM medium at 37° C., 5% CO2. The cells were passaged every 3 days and the cells were used within 15 generations.
(§5) 2) Tumor production: 10^6 live CT26 tumor cells were injected subcutaneously into the back of tumor-immunized […], and treatment was started when the tumor grew to about 0.3-0.4 cm. The tumor size (mm^3) of the mice was recorded and compared with the solvent control group. The tumor inhibition rate on day 42 was calculated in the solvent control group.
(§6) 3) Treatment process: IV injection is used, and the drug is used at a dose of ⅓ MTD once a week Immunosuppressive IV injection treatment once a week for a total of 6 weeks of treatment.
(§7) 4) The cure rate of 10 in each group was counted. After 50 days, the cured mice and wild groups were inoculated […] to detect recurrence.

D121 lung cancer cells = assay: D121 lung cancer immunotherapy model; settings: single agent; for Tumor inhibition rate/% (week 7): i.v. ⅙ MTD once a week for 4 weeks; for CD8: CD45 (%): tumor CD8+ T cells among CD45-positive cells, flow cytometry
Procedure: (1) D121 lung cancer cells purchased from ATCC were cultured in DMEM medium containing 10% fetal bovine serum at 37° C. and 5% CO2, and the cells were digested with EDTA trypsin according to routine use, and passed two to three times a week for placement.
(2) Animals: C57 BALB/C mice, 6-8 weeks old, female, weighing about 18-22 g, purchased from Shanghai SLAC Laboratory Animal Co., Ltd.
3) Immunization: Mice were intraperitoneally injected with 100 μL of 5×10^5 D121 lung cancer cells that died by repeated freeze-thaw cycles, and immunized 3 times with an interval of 2 weeks.
4) Cell seeding: Collect the tumor cells in logarithmic growth phase, adjust the D121 cell concentration to (1×10^7/ml) with DMEM basal medium, 0.1 ml of the cell suspension was inoculated to the right side of each mouse subcutaneously with a 1 ml syringe. […] Tumor volume was observed and measured, and the average tumor volume reached 100-200 mm^3 about 7 days after inoculation, that is, tumor cell-bearing mice were grouped and administered. The immunized group in Table 9 was immunized with D121 lung cancer cells, and the D121 dead tumor cell immunized group was injected with physiological saline as a control.
The immunosuppressive regulatory point protein Anti-PD-L1 antibody was injected twice a week. A total of two weeks.
6) Experimental observation: During the whole experiment, the use and observation of experimental animals were carried out in accordance with the regulations of AAALAC. The experimental animals were observed daily after inoculation of tumor cells, and their onset and death were recorded. During the routine experiment, all experimental animals were monitored and recorded for behavior, feeding, water intake, weight change, hair shine and other abnormalities.
(7) Analysis of tumor CD8+ T cells (T lymphocyte subsets). Tumor tissues were ground and single cancer cells were isolated by filtration using 40 μm Nylon cell strainer, lysed twice with blood cell lysis buffer for 20 min, washed twice with 1% BSA-PBS buffer, centrifuged, and resuspended, and then the cells were counted again. 1×10^5 cells were incubated with leukocyte co-antigen CD45-PE and CD8-FITC-labeled antibody for 1 hour at room temperature in the dark, and then analyzed the proportion of T lymphocyte antigen (CD8) in leukocyte common antigen (CD45)-positive cells by flow cytometry.

[4] = Stability of carbohydrate-linked enzyme substrate peptide linkers; assay type: physicochemical; settings: linker: carbohydrate linked to the enzyme substrate peptide
Procedure: (§8) The specific aspartic acid endopeptidase (Legumain) enzyme substrate peptide was ligated to different types of carbohydrates, and the stability and enzymatic cleavage efficiency of the resulting linker were tested, and a strong activation was predicted.

[5] = target: T2, aspartic acid endopeptidase (Legumain) (Homo sapiens, UniProt Q99538); assay: Enzymatic cleavage (digestion) efficiency of linkers; assay type: biochemical; settings: linker cleaved by Legumain
T2 sequence (Q99538 18-323): T1 sequence (Q99538 18-323)
Procedure: as §8

[6] = Drug content in tumor tissue homogenate (HPLC); assay type: in vivo; settings: 10 micromoles per kilogram intravenous, tumor-bearing mice, FIG. 4
Procedure: Intravenous injection of 10 micromoles per kilogram of the drug into tumor-bearing mice, surgically obtained tumor tissue homogenate, and the drug content was determined by the HPLC method.

CT26 tumor cells [7] = assay: CT26 treatment model (Example 17); assay type: in vivo, mice; settings: CT26 model as in Example 15
Procedure: as §4, §5, §6, §7
The CT26 immunotherapy model was constructed as in Example 15, and the pharmacodynamic and immunotherapeutic effects of the compounds S4-S6, S9-S12 and S15-S18 in the CT26 treatment model were tested.

For “Lacto-AAN-PABC-Paclitaxel [Compound C5, reference compound]”, the “Activation efficiencies (%)” value (aspartic endopeptidase) was 59.3%, the “Stability verdict (stable / unstable)” value [1] was “unstable” and the “Stability(%)” value [1] was 89.3%.
For CC(NC(=O)C(NC(=O)[C@H](O)[C@H](O)[C@@H](O[C@@H]1O[C@H](CO)[C@H](O)[C@H](O)[C@H]1O)[C@H](O)CO)C(C)O)C(=O)NC(CC(N)=O)C(=O)Nc1ccc(COC(=O)N(C)CCNC(=O)c2cc(Oc3ccc(NC(=O)Nc4ccc(Cl)c(C(F)(F)F)c4)c(F)c3)ccn2)cc1 (stereo partly drawn) [Compound S14, Lacto-TAN-PABC-compound b], the “Activation efficiencies (%)” value (aspartic endopeptidase) was 99.5%, the “Stability verdict (stable / unstable)” value [1] was “stable” and the “Stability(%)” value [1] was 97.8%. The MTD at 17 days [2] was 310 mg/kg, the Number of deaths (BALB/C mouse) was 1 and the “Death dose” value (BALB/C mouse) was 350 mg/kg. For the same compound, the Cure rate % (CT26 tumor cells [3]) was 80%, the Number of cures (CT26 tumor cells [3]) was 8 and the “Tumor inhibition rate % (Day 42)” value (CT26 tumor cells [3]) was 85.%. The “Recurrence rate % (Week 7)” value (CT26 tumor cells [3]) was 0%.
In the case of C[C@H](N=C[C@H](O)[C@@H](O)[C@H](O)[C@H](O)CO)C(=O)N[C@@H](C)C(=O)N[C@@H](CC(N)=O)C(=O)Nc1ccc(COC(=O)N(C)CCNC(=O)c2cc(Oc3ccc(NC(=O)Nc4ccc(Cl)c(C(F)(F)F)c4)cc3)ccn2)cc1 [Compound C4, Glucose-AAN-PABC-Compound a, reference compound], the “Activation efficiencies (%)” value (aspartic endopeptidase) is reported as 46.7%, the “Stability verdict (stable / unstable)” value [1] is reported as “unstable” and the “Stability(%)” value [1] is reported as 85.7%. The MTD [2] was 80 mg/kg, the Number of deaths (BALB/C mouse) was 2 and the “Death dose” value (BALB/C mouse) was 90 mg/kg. For the same compound, the Cure rate % (CT26 tumor cells [3]) was 0%, the Number of cures (CT26 tumor cells [3]) was 0 and the “Tumor inhibition rate % (Day 42)” value (CT26 tumor cells [3]) was 36.6%. For the same compound, the “Tumor inhibition rate/% (week 7)” value (D121 lung cancer cells) was 40.8% and the “CD8: CD45 (%)” value (D121 lung cancer cells) was 10.7%.
Compound CC(/N=C(\CO)C(O)C(O)C(O)CO)C(=O)NC(C)C(=O)NC(CC(N)=O)C(=O)Nc1ccc(CO)cc1 (stereo not drawn) has a stability [4] of 85.5% and a Digestion efficiency [5] of 35.8%.
With CC(NC(=O)C(C)NC(=O)[C@H](O)[C@H](O)[C@@H](O[C@@H]1O[C@H](CO)[C@H](O)[C@H](O)[C@H]1O)[C@H](O)CO)C(=O)NC(CC(N)=O)C(=O)Nc1ccc(COC(=O)N(C)CCNC(=O)c2cc(Oc3ccc(NC(=O)Nc4ccc(Cl)c(C(F)(F)F)c4)c(F)c3)ccn2)cc1 (stereo partly drawn) [Compound S2, Lacto-AAN-PABC-Compound b] the “Activation efficiencies (%)” value (aspartic endopeptidase) was 88.4%, the “Stability verdict (stable / unstable)” value [1] was “stable” and the “Stability(%)” value [1] was 99.6%. The “drug distribution in the tumor” value [6] was “multiplied in the distribution of sorafenib in the tumor”, the MTD at 17 days [2] was 300 mg/kg and the Number of deaths (BALB/C mouse) was 2. The “Death dose” value (BALB/C mouse) was 350 mg/kg, the Cure rate % (CT26 tumor cells [3]) was 50% and the Number of cures (CT26 tumor cells [3]) was 5. The “Tumor inhibition rate % (Day 42)” value (CT26 tumor cells [3]) was 92.4%, the “Recurrence rate % (Week 7)” value (CT26 tumor cells [3]) was 0% and the “Tumor inhibition rate/% (week 7)” value (D121 lung cancer cells) was 52.4%. For the same compound, the “CD8: CD45 (%)” value (D121 lung cancer cells) was 10.5%.
Work on PEG-Ala-Ala-ASN-PABC yielded a stability [4] of 97.6% and a Digestion efficiency [5] of 68.6%.
In the case of CC(NC(=O)C(NC(=O)[C@H](O)[C@H](O)[C@@H](O[C@@H]1O[C@H](CO)[C@H](O)[C@H](O)[C@H]1O)[C@H](O)CO)C(C)C)C(=O)NC(CC(N)=O)C(=O)Nc1ccc(COC(=O)N(C)CCNC(=O)c2cc(Oc3ccc(NC(=O)Nc4ccc(Cl)c(C(F)(F)F)c4)c(F)c3)ccn2)cc1 (stereo partly drawn) [Compound S8, Lacto-VAN-PABC-compound b], the “Activation efficiencies (%)” value (aspartic endopeptidase) is reported as 93.7%, the “Stability verdict (stable / unstable)” value [1] is reported as “stable” and the “Stability(%)” value [1] is reported as 98.4%. For the same compound, the MTD at 17 days [2] was 280 mg/kg, the Number of deaths (BALB/C mouse) was 2 and the “Death dose” value (BALB/C mouse) was 340 mg/kg. The Cure rate % (CT26 tumor cells [3]) was 70%, the Number of cures (CT26 tumor cells [3]) was 7 and the “Tumor inhibition rate % (Day 42)” value (CT26 tumor cells [3]) was 73.4%. The “Recurrence rate % (Week 7)” value (CT26 tumor cells [3]) was 0%.
For CC(NC(=O)C(C)NC(=O)[C@H](O)[C@H](O)[C@@H](O[C@@H]1O[C@H](CO)[C@H](O)[C@H](O)[C@H]1O)[C@H](O)CO)C(=O)NC(CC(N)=O)C(=O)Nc1ccc(COC(=O)Nc2nccc(-c3sc(C(C)(C)C)nc3-c3cccc(NS(=O)(=O)c4c(F)cccc4F)c3F)n2)cc1 (stereo partly drawn) [Compound S4], the MTD at 17 days [2] was 280 mg/kg, the Number of deaths (BALB/C mouse) was 2 and the “Death dose” value (BALB/C mouse) was 300 mg/kg. For the same compound, the “CD8: CD45 (%)” value (CT26 tumor cells [7]) was 11.9%, the “Number of animals cured” value (CT26 tumor cells [7]) was 2 and the “Recurrence rate/% (at week 10)” value (CT26 tumor cells [7]) was 0%. For the same compound, the “Tumor inhibition rate/% (at week 7)” value (CT26 tumor cells [7]) was 58.9%, the “Tumor inhibition rate/% (week 7)” value (D121 lung cancer cells) was 70.7% and the “CD8: CD45 (%)” value (D121 lung cancer cells) was 15.8%.
CC(/N=C\[C@H](O)[C@@H](O)[C@H](O)[C@H](O)CO)C(=O)NC(C)C(=O)NC(CC(N)=O)C(=O)Nc1ccc(CO)cc1 (stereo partly drawn) gave a stability [4] of 89.6% and a Digestion efficiency [5] of 25.5%.
For CC(NC(=O)C(NC(=O)[C@H](O)[C@H](O)[C@@H](O[C@@H]1O[C@H](CO)[C@H](O)[C@H](O)[C@H]1O)[C@H](O)CO)C(C)O)C(=O)NC(CC(N)=O)C(=O)Nc1ccc(COC(=O)N(C)CCNC(=O)c2cc(Oc3ccc(NC(=O)Nc4ccc(Cl)c(C(F)(F)F)c4)cc3)ccn2)cc1 (stereo partly drawn) [Compound S13, Lacto-TAN-PABC-compound a], the “Activation efficiencies (%)” value (aspartic endopeptidase) was 98.6%, the “Stability verdict (stable / unstable)” value [1] was “stable” and the “Stability(%)” value [1] was 98.6%. For the same compound, the MTD at 17 days [2] was 320 mg/kg, the Number of deaths (BALB/C mouse) was 2 and the “Death dose” value (BALB/C mouse) was 360 mg/kg. For the same compound, the Cure rate % (CT26 tumor cells [3]) was 80%, the Number of cures (CT26 tumor cells [3]) was 8 and the “Tumor inhibition rate % (Day 42)” value (CT26 tumor cells [3]) was 79.7%. For the same compound, the “Recurrence rate % (Week 7)” value (CT26 tumor cells [3]) was 0%.
For CC(NC(=O)C(NC(=O)[C@H](O)[C@H](O)[C@@H](O[C@@H]1O[C@H](CO)[C@H](O)[C@H](O)[C@H]1O)[C@H](O)CO)C(C)C)C(=O)NC(CC(N)=O)C(=O)Nc1ccc(COC(=O)N(C)CCNC(=O)c2cc(Oc3ccc(NC(=O)Nc4ccc(Cl)c(C(F)(F)F)c4)cc3)ccn2)cc1 (stereo partly drawn) [Compound S7, Lacto-VAN-PABC-compound a], the “Activation efficiencies (%)” value (aspartic endopeptidase) was 90.5%, the “Stability verdict (stable / unstable)” value [1] was “stable” and the “Stability(%)” value [1] was 97.2%. The MTD at 17 days [2] was 300 mg/kg, the Number of deaths (BALB/C mouse) was 1 and the “Death dose” value (BALB/C mouse) was 345 mg/kg. The Cure rate % (CT26 tumor cells [3]) was 70%, the Number of cures (CT26 tumor cells [3]) was 7 and the “Tumor inhibition rate % (Day 42)” value (CT26 tumor cells [3]) was 84.7%. The “Recurrence rate % (Week 7)” value (CT26 tumor cells [3]) was 0%.
Compound CC(/N=C/[C@H](O)[C@@H](O)[C@H](O)CO)C(=O)NC(C)C(=O)NC(CC(N)=O)C(=O)Nc1ccc(CO)cc1 (stereo partly drawn) has a stability [4] of 78.9% and a Digestion efficiency [5] of 60.4%.
